For this experiment, the system named is methane production in rumen fluid. Kind of experiment: Rumen in vitro (RIV) assay, methane production from rumen fluid incubations. Format: cell-based, cattle. The note with it: Bos taurus, read-out: RIV % methane reduction +/− SD. How it is done: The compounds of the present invention were initially screened for activity using an in vitro fully automated incubation system for the measurement of total gas production and gas composition (methane and hydrogen). The system used is described in detail in the paper by Muetzel et al. (2014; Animal Feed Science and Technology 196, 1-11). The system in this specification is referred to as the rumen in vitro system or RIV. The RIV system provides a relatively simple tool for determining the rate and production of methane and also whether the rate and production of methane is inhibited or reduced by a particular compound or feed. Rumen in vitro assays use rumen fluid from donor animals (typically either sheep or cattle) which is typically combined with a buffer and then incubated in sealed fermentation vessels at 39° C. for either 24 or 48 h. These assays systems have been well-characterised and used by the scientific community over the last two decades (Rymer et al. 2005). The system that has been used here to characterise the effects of inhibitors on methane production and gas production, and the formation of H2, was described by Muetzel et al. (2014). Rumen in vitro assay systems reflect what can occur in the rumen in vivo, but only short-term, due to their short incubation times (typically not exceeding 48 h) which is limited by its buffering capacity and the fact that it is a closed system. Stock solutions of inhibitors were re-suspended in dimethylformamide (DMF) at concentrations 1000-fold higher than the highest used for the assays. Any further dilutions were also prepared using DMF. The total amount of inhibitor solution added to the rumen fluid-buffer mixture (60 mL) was 60 μl. Incubations used 60 ml of medium containing 12 ml of filtered rumen fluid and 48 ml of buffer in serum bottles for 24-48 h, essentially as described by Muetzel et al. (2014). Two fistulated cattle were used as donor animals for rumen fluid and treatments were incubated in duplicate bottles. Sets of duplicate incubation vials that contained ryegrass (with rumen fluid-buffer mixture), and ryegrass with 30 μM bromoethanesulfonate (BES) were also incubated as negative and positive controls, respectively. One experiment consists of 2 replicates of an inhibitor at any one concentration run at the same time, and a run can contain up to 32 bottle, including positive (30 µM BES) and negative (no inhibitor added) controls. Compound 1, for example, was tested using the 60 mL rumen in vitro assay system at 50 μM, 10 μM, and 2 μM final concentrations and compared to a positive control with 30 µM BES.

SMILES strings stand for the structures.

Consider `O=C(O)CCC(=O)N1N=C(c2ccc(Cl)cc2)CC1c1ccc2c(c1)OCO2` (stereo not drawn) [Compound 37, 4-(5-(benzo[d][1,3]dioxol-5-yl)-3-(4-chlorophenyl)-4,5-dihydro-1H-pyrazol-1-yl)-4-oxobutanoic acid], for which the inhibition at 50 µM is 15.6 ± 2%.

On to `O=C(O)CCC(=O)N1N=C(c2ccc(Cl)cc2)CC1c1ccc2c(c1)OC(F)(F)O2` (stereo not drawn) [Compound 38, 4-(3-(4-Chlorophenyl)-5-(2,2-difluorobenzo[d][1,3]dioxol-5-yl)-4,5-dihydro-1H-pyrazol-1-yl)-4-oxobutanoic acid], for which the inhibition at 10 µM was found to be 55.8 ± 1.8% and the inhibition at 50 µM was found to be 93.4 ± 0.5%.

As to `O=C(O)CCC(=O)N1N=C(c2ccc(Cl)cc2)CC1c1ccc2c(c1)OCCO2` (stereo not drawn) [Compound 39, 4-(3-(4-Chlorophenyl)-5-(2,3-dihydrobenzo[b][1,4]dioxin-6-yl)-4,5-dihydro-1H-pyrazol-1-yl)-4-oxobutanoic acid], the inhibition at 10 µM came out at 20 ± 5.1% and the inhibition at 50 µM came out at 79.2%.

In the case of `O=C(O)CCC(=O)N1N=C(c2ccc(-c3ccccc3)cc2)CC1c1ccc2c(c1)OCCO2` (stereo not drawn) [Compound 40, 4-(3-([1,1′-Biphenyl]-4-yl)-5-(2,3-dihydrobenzo[b][1,4]dioxin-6-yl)-4,5-dihydro-1H-pyrazol-1-yl)-4-oxobutanoic acid], the inhibition at 10 µM stood at 39.8 ± 1.3% and the inhibition at 50 µM came out at 89.5 ± 1.4%.

Consider `COc1cccc(C2CC(c3ccc(Cl)cc3)=NN2C(=O)CCC(=O)O)c1` (stereo not drawn) [Compound 41, 4-(3-(4-Chlorophenyl)-5-(3-methoxyphenyl)-4,5-dihydro-1H-pyrazol-1-yl)-4-oxobutanoic acid], for which the inhibition at 50 µM was determined as 13.4 ± 3.2%.

Turning to `COc1ccc(C2CC(c3ccc(Cl)cc3)=NN2C(=O)CCC(=O)O)c(OC)c1` (stereo not drawn) [Compound 42, 4-(3-(4-Chlorophenyl)-5-(2,4-dimethoxyphenyl)-4,5-dihydro-1H-pyrazol-1-yl)-4-oxobutanoic acid], the inhibition at 10 µM amounted to 10.5 ± 3.5% and the inhibition at 50 µM came to 80 ± 4.7%.

Take `COc1ccc(C2CC(c3ccc(Cl)cc3)=NN2C(=O)CCC(=O)O)cc1OC` (stereo not drawn) [Compound 43, 4-(3-(4-Chlorophenyl)-5-(3,4-dimethoxyphenyl)-4,5-dihydro-1H-pyrazol-1-yl)-4-oxobutanoic acid]: the inhibition at 50 µM worked out at 39.7 ± 7.2%.

As to `COc1ccc(C2CC(c3ccc(Cl)cc3)=NN2C(=O)CCC(=O)O)cc1O` (stereo not drawn) [Compound 44, 4-(3-(4-Chlorophenyl)-5-(3-hydroxy-4-methoxyphenyl)-4,5-dihydro-1H-pyrazol-1-yl)-4-oxobutanoic acid], the inhibition at 50 µM was determined as 31.3 ± 0.8%.

For `COc1cc(C2CC(c3ccc(Cl)cc3)=NN2C(=O)CCC(=O)O)ccc1O` (stereo not drawn) [Compound 45, 4-(3-(4-Chlorophenyl)-5-(4-hydroxy-3-methoxyphenyl)-4,5-dihydro-1H-pyrazol-1-yl)-4-oxobutanoic acid], the inhibition at 10 µM amounted to 9.9 ± 1.8% and the inhibition at 50 µM stood at 73.1 ± 8.6%.

As to `COc1cc(C2CC(c3ccc(-c4ccccc4)cc3)=NN2C(=O)CCC(=O)O)ccc1O` (stereo not drawn) [Compound 46, 4-(3-([1,1′-Biphenyl]-4-yl)-5-(4-hydroxy-3-methoxyphenyl)-4,5-dihydro-1H-pyrazol-1-yl)-4-oxobutanoic acid], the inhibition at 50 µM was 48.6 ± 1.7%.

As to `CCOc1cc(C2CC(c3ccc(Cl)cc3)=NN2C(=O)CCC(=O)O)ccc1O` (stereo not drawn) [Compound 47, 4-(3-(4-Chlorophenyl)-5-(3-ethoxy-4-hydroxyphenyl)-4,5-dihydro-1H-pyrazol-1-yl)-4-oxobutanoic acid], the inhibition at 50 µM was determined as 68.3 ± 3.9%.

For the molecule `COc1cc(C2CC(c3ccc(Cl)cc3)=NN2C(=O)CCC(=O)O)ccc1F` (stereo not drawn) [Compound 48, 4-(3-(4-Chlorophenyl)-5-(4-fluoro-3-methoxyphenyl)-4,5-dihydro-1H-pyrazol-1-yl)-4-oxobutanoic acid], the inhibition at 50 µM is 43.6 ± 4.5%.

Regarding `O=C(O)CC(=O)N1N=C(c2ccc(Cl)cc2)CC1c1ccc2nccnc2c1` (stereo not drawn) [Compound 49, 3-(3-(4-Chlorophenyl)-5-(quinoxalin-6-yl)-4,5-dihydro-1H-pyrazol-1-yl)-3-oxopropanoic acid], the inhibition at 50 µM is 8.1 ± 7.7%.

For `O=C(O)CCCC(=O)N1N=C(c2ccc(Cl)cc2)CC1c1ccc2nccnc2c1` (stereo not drawn) [Compound 50, 5-(3-(4-Chlorophenyl)-5-(quinoxalin-6-yl)-4,5-dihydro-1H-pyrazol-1-yl)-5-oxopentanoic acid], the inhibition at 50 µM was 66.4 ± 2.9%.

As for `O=C(O)/C=C/C(=O)N1N=C(c2ccc(Cl)cc2)CC1c1ccc2nccnc2c1` (stereo not drawn) [Compound 51, (E)-4-(3-(4-Chlorophenyl)-5-(quinoxalin-6-yl)-4,5-dihydro-1H-pyrazol-1-yl)-4-oxobut-2-enoic acid], the inhibition at 50 µM turned out to be 57.1 ± 7.5%.

As for `O=C(O)/C=C\C(=O)N1N=C(c2ccc(Cl)cc2)CC1c1ccc2nccnc2c1` (stereo not drawn) [Compound 52, (Z)-4-(3-(4-Chlorophenyl)-5-(quinoxalin-6-yl)-4,5-dihydro-1H-pyrazol-1-yl)-4-oxobut-2-enoic acid], the inhibition at 50 µM worked out at 34.1 ± 1.3%.

`O=C(O)CCCN1N=C(c2ccc(Cl)cc2)CC1c1ccc2nccnc2c1` (stereo not drawn) [Compound 53, 4-(3-(4-Chlorophenyl)-5-(quinoxalin-6-yl)-4,5-dihydro-1H-pyrazol-1-yl)butanoic acid]: the inhibition at 10 µM came to 19.4 ± 1.9% and the inhibition at 50 µM turned out to be 82.1 ± 1.2%.

For `CC(C)(C)C(=O)OCOC(=O)CCC(=O)N1N=C(c2ccc(Cl)cc2)CC1c1ccc2nccnc2c1` (stereo not drawn) [Compound 54, (Pivaloyloxy)methyl 4-(3-(4-chlorophenyl)-5-(quinoxalin-6-yl)-4,5-dihydro-1H-pyrazol-1-yl)-4-oxobutanoate], the inhibition at 50 µM turned out to be 23.8 ± 9.4%.

As for `CS(=O)(=O)NC(=O)CCC(=O)N1N=C(c2ccc(Cl)cc2)CC1c1ccc2nccnc2c1` (stereo not drawn) [Compound 55, 4-(3-(4-Chlorophenyl)-5-(quinoxalin-6-yl)-4,5-dihydro-1-pyrazol-1-yl)-N-(methylsulfonyl)-4-oxobutanamide], the inhibition at 2 µM was less than 5%, the inhibition at 10 µM is 70 ± 4.5% and the inhibition at 50 µM is 96.1 ± 0.5%.

Take `CS(=O)(=O)NC(=O)CCC(=O)N1N=C(c2ccc(OC(F)(F)F)cc2)CC1c1ccc2nccnc2c1` (stereo not drawn) [Compound 56]: the inhibition at 2 µM is less than 5%, the inhibition at 10 µM worked out at 72.4 ± 10.6% and the inhibition at 50 µM turned out to be 98.6%.

On to `CS(=O)(=O)NC(=O)CCC(=O)N1N=C(c2ccc(-c3ccccc3)cc2)CC1c1ccc2nccnc2c1` (stereo not drawn) [Compound 57, 4-(3-([1,1′-Biphenyl]-4-yl)-5-(quinoxalin-6-yl)-4,5-dihydro-1H-pyrazol-1-yl)-N-(methylsulfonyl)-4-oxobutanamide], for which the inhibition at 10 µM came to 62.7 ± 4.4% and the inhibition at 50 µM turned out to be 89.7 ± 0.5%.

For the molecule `CC(C)S(=O)(=O)NC(=O)CCC(=O)N1N=C(c2ccc(Cl)cc2)CC1c1ccc2nccnc2c1` (stereo not drawn) [Compound 58], the inhibition at 2 µM came out at 6 ± 1.6%, the inhibition at 10 µM turned out to be 80.4 ± 6.3% and the inhibition at 50 µM stood at 93.9 ± 4.7%.

`CN(C)S(=O)(=O)NC(=O)CCC(=O)N1N=C(c2ccc(Cl)cc2)CC1c1ccc2nccnc2c1` (stereo not drawn) [Compound 59, 4-(3-(4-Chlorophenyl)-5-(quinoxalin-6-yl)-4,5-dihydro-1H-pyrazol-1-yl)-N—(N,N-dimethylsulfamoyl)-4-oxobutanamide]: the inhibition at 2 µM worked out at 10.6 ± 2.5%, the inhibition at 10 µM worked out at 86.7 ± 7% and the inhibition at 50 µM is 94.4 ± 4%.

For the molecule `O=C(O)c1cccc(N2N=C(c3ccc(-c4ccccc4)cc3)CC2c2ccc3nccnc3c2)c1` (stereo not drawn) [Compound 61, 3-(3-([1,1′-Biphenyl]-4-yl)-5-(quinoxalin-6-yl)-4,5-dihydro-1H-pyrazol-1-yl)benzoic acid], the inhibition at 2 µM came to 13.1%, the inhibition at 10 µM is 88.3 ± 0.9% and the inhibition at 50 µM was found to be 95.9 ± 0.6%.

Regarding `CSc1ccc(C2=NN(C(=O)CCC(=O)O)C(c3ccc4nccnc4c3)C2)cc1` (stereo not drawn) [Compound 62], the inhibition at 50 µM worked out at 31.8%.

As to `O=C1NC(=O)C(CC(=O)N2N=C(c3ccc(Cl)cc3)CC2c2ccc3nccnc3c2)S1` (stereo not drawn) [Compound 63, 5-(2-(3-(4-Chlorophenyl)-5-(quinoxalin-6-yl)-4,5-dihydro-1H-pyrazol-1-yl)-2-oxoethyl)thiazolidine-2,4-dione], the inhibition at 50 µM amounted to 43.6 ± 2.9%.

Regarding `O=C(O)CCC(=O)N1N=C(c2ccc(-c3ccc(OC(F)F)cc3)cc2)CC1c1ccc2nccnc2c1` (stereo not drawn) [Compound 65, 4-(3-(4′-(Difluoromethoxy)-[1,1′-biphenyl]-4-yl)-5-(quinoxalin-6-yl)-4,5-dihydro-1H-pyrazol-1-yl)-4-oxobutanoic acid], the inhibition at 2 µM is 26.2% and the inhibition at 10 µM is 90.2%.

(Values after patent US20260053171A1, “METHANOGEN INHIBITORS” (AGRIZERONZ LIMITED PARTNERSHIP, priority 2022, published 2026).)
